Results from patent US12150939B2, “Therapeutic drug for ectopic ossification having mechanism to inhibit PAR1” (NATIONAL UNIVERSITY CORPORATION KUMAMOTO UNIVERSITY, priority 2015, dated 2024).

Assays:
FOP-derived fibroblasts [1] = assay: Differentiation of FOP-derived fibroblasts to osteoblasts in the absence of serum when using each inhibitor (ALP immunostaining and ALP activity); assay type: cell-based, human; settings: BMP6 and TFLLR stimulation
NOG mice = assay: Ectopic ossification in teratomas from FOP patient iPS cells implanted into testicle of NOG mice, PAR1 inhibitor (CT); assay type: in vivo; settings: 0.2 mg/kg/day intraperitoneally once daily from 9 weeks after implantation
FOP-derived fibroblasts [2] = assay: Differentiation of FOP-derived fibroblasts to osteoblasts by BMP6 / TFLLR stimulation in the absence of serum (ALP immunostaining and ALP activity); assay type: cell-based, human; settings: single stimulus
Procedure: (§1) • (1) Fibroblasts were created from skin biopsy explants from FOP patients and normal subjects under informed consent by a protocol approved by Ethics committee. • (2) Skin samples from patients and from normal subjects were finely cut and cultured in DMEM medium supplemented with 10% fetal bovine serum (FBS). • (3) After emergence of fibroblasts was observed, the fibroblasts were grown to introduce a reprogramming gene. The grown fibroblasts were then put in a solution for freezing containing 10% DMSO+90% FBS and cryopreserved. <2. […] Intensity of bands was evaluated by Image J software (NIH, USA). • (4) In immunoprecipitation, 293T cells in which Smads were overexpressed, and KDM6B or LSD1 were lysed in RIPA buffer (50 mM Tris-HCl, pH 7.4, 1 mM EDTA, 150 mM NaCl, 1% NP-40, protease/phosphatase inhibitor cocktail). […]

[3] = system: normal subject-derived fibroblasts; assay: PAR1 mRNA expression by BMP6 stimulation in the presence of serum (qPCR), normal subject-derived fibroblasts; assay type: cell-based, human; settings: BMP6 50 ng/mL, over time
Procedure: as §1

FOP-derived fibroblasts [4] = assay: PAR1 mRNA expression by BMP6 stimulation in the presence of serum (qPCR), FOP-derived fibroblasts; assay type: cell-based, human; settings: BMP6 50 ng/mL, over time, compared to normal subject-derived fibroblasts
Procedure: as §1

CC(C)c1ccc(Cn2ccc3c4c(N)nc(NC5CC5)nc4ccc32)cc1 [SCH79797, N3-cyclopropyl-7-[[4-(1-methylethyl)phenyl]methyl]-7H-pyrrolo[3,2-f]quinazoline-1,3-diamine]
ALP activity (FOP-derived fibroblasts [1]; 200 nM): largely decreased
ALP expression (immunostaining) (FOP-derived fibroblasts [1]; 200 nM): largely decreased

CCOC(=O)N[C@@H]1CC[C@@H]2[C@@H](C1)C[C@H]1C(=O)O[C@H](C)[C@H]1[C@H]2/C=C/c1ccc(-c2cccc(F)c2)cn1 [Vorapaxar, ethyl [(1R,3aR,4aR,6R,8aR,9S,9aS)-9-{(1E)-2-[5-(3-fluorophenyl)pyridin-2-yl]ethen-1-yl}-1-methyl-3-oxododecahydronaphtho[2,3-c]furan-6-yl]carbamate]
bone volume in the teratomas relative to vehicle (NOG mice): about one third
teratoma volume calculated from CT images versus vehicle (NOG mice): a significant difference in the teratoma volume was not observed
bones found in the teratomas (CT images) versus vehicle (NOG mice; after 2 weeks of administration): notably less
ALP activity (FOP-derived fibroblasts [1]; 1 μM): largely decreased
ALP expression (immunostaining) (FOP-derived fibroblasts [1]; 1 μM): largely decreased

B1: BMP6: bone morphogenetic protein used as osteogenic stimulus (protein, UniProt P22004 375-513, looked up)
Bone morphogenetic protein 6: SASSRRRQQSRNRSTQSQDVARVSSASDYNSSELKTACRKHELYVSFQDLGWQDWIIAPKGYAANYCDGECSFPLNAHMNATNHAIVQTLVHLMNPEYVPKPCCAPTKLNAISVLYFDDNSNVILKKYRNMVVRACGCH
ALP activity compared to control (FOP-derived fibroblasts [2]): significantly increased
ALP expression (immunostaining) (FOP-derived fibroblasts [2]): observed
mRNA expression level of PAR1 [3]: significantly increased
mRNA expression level of PAR1 (FOP-derived fibroblasts [4]): remarkable increase
